Assays:
[1] = Thiol reactivity of the compound in DMSO/PBS buffer assessed as adduct formation by measuring half life of parent compound by 1H NMR analysis; format: physicochemical
518A2 = test: Cytotoxicity against human 518A2 cells assessed as reduction in cell viability after 96 hrs by SRB asssay; format: functional, cell-based; details: 518A2, 96 h
A-431 = test: Cytotoxicity against human A431 cells assessed as reduction in cell viability after 96 hrs by SRB asssay; format: functional, cell-based; details: A-431, 96 h
A549 = test: Cytotoxicity against human A549 cells assessed as reduction in cell viability after 96 hrs by SRB asssay; format: functional, cell-based; details: A549, 96 h
HT-29 = test: Cytotoxicity against human HT-29 cells assessed as reduction in cell viability after 96 hrs by SRB asssay; format: functional, cell-based; details: HT-29, 96 h
MCF7 = test: Cytotoxicity against human MCF7 cells assessed as reduction in cell viability after 96 hrs by SRB asssay; format: functional, cell-based; details: MCF7, 96 h
[2] = Thiol reactivity of the compound in PBS buffer assessed as pseudo-first order rate constant for adduct formation in presence of 4-nitrobenzenethiol at pH 7.4 by stop-flow spectrophotometric analysis
[3] = Cysteine reactivity of the compound assessed as adduct formation after 2 mins by mass spectrometric analysis
[4] = Thiol reactivity of the compound in PBS buffer assessed as adduct formation at 100 to 200 uM at pH 7.4 by UV-visible spectroscopic analysis
[5] = Glutathione reactivity of the compound in PBS buffer assessed as rate constant for 1,4-adduct formation at pH 7.4
[6] = Glutathione reactivity of the compound in DMSO/HEPES buffer assessed as second order rate constant for adduct formation at pH 7.4 by spectroscopic analysis
[7] = DTT reactivity of the compound in acetonitrile to tris-HCL buffer at pH 7.4 by NMR spectroscopic analysis
[8] = Glutathione reactivity of the compound in acetonitrile to tris-HCL buffer at pH 7.4 by NMR spectroscopic analysis
[9] = Cysteamine reactivity of the compound in TRIS-HCL assessed as second order rate constant at 40 uM and pH 7.4 by stopped-flow assay
[10] = Inhibition of wild-type HCV genotype 1b protease using 5-FAM/QXL 520 as substrate after 60 to 90 mins by FRET-based assay; set-up: species or system Hepatitis C virus subtype 1b
[11] = Thiol reactivity of the compound assessed as equilibrium constant for adduct formation
[12] = Cysteine reactivity of the compound assessed as second order rate constant by 1H NMR analysis
[13] = Glutathione reactivity of the compound in DMSO and phosphate buffer assessed as second order rate constant for adduct formation
Tetrahymena pyriformis = test: Toxicity in Tetrahymena pyriformis assessed as growth inhibition after 48 hrs
[14] = biological target: Sodium-dependent dopamine transporter (Rattus norvegicus, UniProt P23977); test: Inhibition of [3H]dopamine uptake at DAT in rat brain striatal synaptosomes by liquid scintillation counting analysis; format: subcellular, Striatum
Exportin-1 = Exportin-1 (Homo sapiens, UniProt O14980); test: Inhibition of CRM1-mediated nucleocytoplasmic transport in human HeLa cells after 90 mins by immunofluorescence assay; format: cell-based
[15] = Inhibition of PI3K (unknown origin); set-up: species or system Homo sapiens

Exportin-1, sequence (O14980 whole entry): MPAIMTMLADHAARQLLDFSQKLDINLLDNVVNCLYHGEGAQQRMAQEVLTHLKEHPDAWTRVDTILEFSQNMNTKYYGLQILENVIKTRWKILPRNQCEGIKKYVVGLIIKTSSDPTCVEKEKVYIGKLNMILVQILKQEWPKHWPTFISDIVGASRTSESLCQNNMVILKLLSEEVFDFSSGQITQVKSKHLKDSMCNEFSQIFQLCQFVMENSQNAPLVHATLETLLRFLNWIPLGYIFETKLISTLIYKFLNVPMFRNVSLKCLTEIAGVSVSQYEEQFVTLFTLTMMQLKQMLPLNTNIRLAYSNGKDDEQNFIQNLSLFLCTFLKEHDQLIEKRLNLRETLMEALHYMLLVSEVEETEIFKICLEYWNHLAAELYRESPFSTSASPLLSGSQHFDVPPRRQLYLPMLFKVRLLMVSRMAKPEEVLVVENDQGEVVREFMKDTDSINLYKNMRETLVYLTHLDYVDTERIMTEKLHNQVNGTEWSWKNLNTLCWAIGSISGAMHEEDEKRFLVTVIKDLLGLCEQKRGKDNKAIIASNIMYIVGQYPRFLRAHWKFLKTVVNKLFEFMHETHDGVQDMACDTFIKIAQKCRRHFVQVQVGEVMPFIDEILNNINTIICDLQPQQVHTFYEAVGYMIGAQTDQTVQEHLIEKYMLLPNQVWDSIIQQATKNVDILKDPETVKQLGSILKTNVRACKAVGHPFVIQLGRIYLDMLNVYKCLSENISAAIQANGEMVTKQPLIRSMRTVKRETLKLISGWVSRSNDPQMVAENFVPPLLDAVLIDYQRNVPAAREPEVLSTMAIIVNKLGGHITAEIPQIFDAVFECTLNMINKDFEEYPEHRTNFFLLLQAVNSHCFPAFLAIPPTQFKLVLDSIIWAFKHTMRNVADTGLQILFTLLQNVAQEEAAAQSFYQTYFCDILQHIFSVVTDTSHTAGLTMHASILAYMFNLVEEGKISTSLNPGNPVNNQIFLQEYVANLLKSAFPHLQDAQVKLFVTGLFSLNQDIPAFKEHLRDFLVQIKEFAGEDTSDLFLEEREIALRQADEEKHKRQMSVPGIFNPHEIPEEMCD
Sodium-dependent dopamine transporter, sequence (P23977 whole entry): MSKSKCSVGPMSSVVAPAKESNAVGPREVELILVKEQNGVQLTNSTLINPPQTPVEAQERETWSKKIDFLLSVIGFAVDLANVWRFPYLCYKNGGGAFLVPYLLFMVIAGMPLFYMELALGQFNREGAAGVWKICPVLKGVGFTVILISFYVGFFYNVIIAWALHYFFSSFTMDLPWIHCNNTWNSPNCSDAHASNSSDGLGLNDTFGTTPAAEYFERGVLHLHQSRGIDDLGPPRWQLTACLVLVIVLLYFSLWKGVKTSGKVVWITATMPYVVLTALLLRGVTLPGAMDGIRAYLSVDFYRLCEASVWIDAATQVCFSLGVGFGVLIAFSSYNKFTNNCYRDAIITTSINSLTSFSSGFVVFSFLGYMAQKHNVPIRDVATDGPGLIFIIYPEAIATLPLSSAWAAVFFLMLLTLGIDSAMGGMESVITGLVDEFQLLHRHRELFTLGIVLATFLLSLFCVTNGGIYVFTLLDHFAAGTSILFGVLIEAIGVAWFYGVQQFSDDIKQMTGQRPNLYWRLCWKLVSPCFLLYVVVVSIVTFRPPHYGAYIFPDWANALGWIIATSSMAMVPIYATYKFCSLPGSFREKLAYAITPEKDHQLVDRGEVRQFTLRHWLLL

Molecule `N#CC(c1ccncc1)C(SCCO)C1CC1` (configuration not stated) has a t1/2 [1] of 11.9 min.

`CC1=CC[C@]23O[C@@]2(C)CC[C@@H]2[C@H](OC(=O)[C@H]2CN2CCNCC2)[C@@H]13` gave an IC50 (518A2) of 15 µM, an IC50 (A-431) of 4.4 µM and an IC50 (A549) of 15.7 µM. The IC50 (HT-29) was 15.1 µM and the IC50 (MCF7) was 15.1 µM.

Molecule `Cc1cc(O)c(C)c(Sc2ccc([N+](=O)[O-])cc2)c1O` has a K [2] of 7.3 ×10⁻¹ /s.

`CCCCC[C@@H](O)C/C=C1/C(=O)C[C@H](O)[C@@H]1C/C=C\CCCC(=O)O` gave a Drug metabolism [3] of 60%.

In the case of `N#CC(C(N)=O)C(SCCO)c1cccc2[nH]ccc12` (configuration not stated), the Kd [4] is reported as 6200 µM.

For `N#CC(C(N)=O)C(SCCO)c1ccsc1` (configuration not stated), the Kd [4] was 11900 µM.

`Cc1cc(O)cc(Sc2ccc([N+](=O)[O-])cc2)c1O` gave a K [2] of 3.2 ×10² /s.

Work on `N[C@@H](CSCCC=O)C(=O)O` yielded a K [5] of 220 M⁻¹ s⁻¹.

With `CCN(CC)c1ccc2cc(C(CC(=O)OC)SC[C@H](NC(=O)CC[C@H](N)C(=O)O)C(=O)NCC(=O)O)c(=O)oc2c1` (some centres not stated) the K [6] was 0 M⁻¹ s⁻¹.

With `O=C(/C=C/c1ccccc1O)/C=C/c1ccccc1O` the DTT second-order rate constant [7] was 2.5 M⁻¹ s⁻¹ and the Activity [8] was 5 M⁻¹ s⁻¹.

`O=[N+]([O-])c1ccc(Sc2cc(O)ccc2O)cc1` gave a K [2] of 1.5 ×10³ /s.

In the case of `CC1=CC[C@]23O[C@@]2(C)CC[C@@H]2[C@H](OC(=O)[C@H]2CSCCO)[C@@H]13`, the IC50 (518A2) is reported as 16.9 µM, the IC50 (A-431) is reported as 12.8 µM and the IC50 (A549) is reported as 12.8 µM. For the same molecule, the IC50 (HT-29) was 18.6 µM and the IC50 (MCF7) was 17.3 µM.

Work on `CC1=CC[C@]23O[C@@]2(C)CC[C@@H]2[C@H](OC(=O)[C@H]2CN2CCSCC2)[C@@H]13` yielded an IC50 (518A2) of 13.2 µM, an IC50 (A-431) of 16.9 µM and an IC50 (A549) of 4.76 µM. The IC50 (HT-29) was 16.2 µM and the IC50 (MCF7) was 13.4 µM.

`Cc1csc(C(C#N)C(SCCO)C2CC2)n1` (configuration not stated) gave a t1/2 [1] of 4.8 min.

Work on `COc1ccc(C(=O)C(C(SCCN)c2ccc(OC)c(OC)c2)C(F)(F)F)c(OC)c1` (configuration not stated) yielded a K [9] of 17 M⁻¹ s⁻¹.

In the case of `CC(CC=O)SC[C@H](N)C(=O)O` (some centres not stated), the K [5] is reported as 8.9 M⁻¹ s⁻¹.

In the case of `C=CC(=O)N[C@H](C)C(=O)N1C[C@H](Oc2nccc3ccc(Br)cc23)C[C@H]1C(=O)N[C@]1(C(=O)CS(=O)(=O)C2CC2)C[C@H]1C=C`, the IC50 [10] is reported as 0.004 µM.

With `CC(C)(C)c1cc(O)cc(Sc2ccc([N+](=O)[O-])cc2)c1O` the K [2] was 2.3 ×10¹ /s.

Molecule `N#CC(C(N)=O)C(SCCO)c1c[nH]cn1` (configuration not stated) has a Kd [4] of 32800 µM.

For `CC1C(=O)CCC1Sc1ccccc1` (configuration not stated), the Ke [11] was 1.28 M⁻¹.

`C=C(C)C(=O)O[C@H]1CC2=C[C@@H](C[C@@]3(C)O[C@H]3[C@H]3OC(=O)C(CSC[C@H](N)C(=O)O)[C@@H]31)OC2=O` (some centres not stated) showed a K [12] of 1.7 M⁻¹ s⁻¹.

With `CCN(CC)c1ccc2cc(C(CC(C)=O)SC[C@H](NC(=O)CC[C@H](N)C(=O)O)C(=O)NCC(=O)O)c(=O)oc2c1` (some centres not stated) the K [6] was 0.007 M⁻¹ s⁻¹.

Molecule `C=CC(=O)CCC` has a K [13] of 1170 M⁻¹ s⁻¹ and an EC50 (Tetrahymena pyriformis) of 22 µM.

`CC(CC=O)SC[C@H](NC(=O)CC[C@H](N)C(=O)O)C(=O)NCC(=O)O` (some centres not stated) showed a K [5] of 0.78 M⁻¹ s⁻¹.

`C#CC(=O)OCC` [PROPYNOIC ACID ETHYL ESTER] gave a K [13] of 105 M⁻¹ s⁻¹ and an EC50 (Tetrahymena pyriformis) of 17 µM.

Molecule `NC(=O)CI` has a K [12] of 25 M⁻¹ s⁻¹.

With `Cc1csc(C(C#N)C(SCCO)c2ccccc2)n1` (configuration not stated) the t1/2 [1] was < 1 min.

`CCN1C(=O)C=CC1=O` [N-ETHYLMALEIMIDE] gave a K [12] of 3750 M⁻¹ s⁻¹ and an IC50 [14] of 46.8 µM.

With `CCCCCC#CC=O` the K [13] was 487 M⁻¹ s⁻¹ and the EC50 (Tetrahymena pyriformis) was 19 µM.

`CCC(=C/[C@H](C)C/C=C/C(C)=C/[C@@H](C)C(=O)[C@@H](C)[C@H](O)[C@@H](C)C/C(C)=C/C(=O)O)/C=C/[C@@H]1OC(=O)C=C[C@@H]1C` [LEPTOMYCIN B] showed an IC50 (Exportin-1) of 0.001 µM.

Molecule `CO[C@H]1OC(=O)/C(=C\N(C2CC2)C2CC2)C2=C(O)C(=O)C3=C([C@H](OC(C)=O)C[C@]4(C)C(=O)CC[C@@H]34)[C@]21C` has an IC50 [15] of 0.0003 µM.

With `CO[C@H]1OC(=O)/C(=C\Sc2ccccc2)C2=C(O)C(=O)C3=C([C@H](OC(C)=O)C[C@]4(C)C(=O)CC[C@@H]34)[C@]21C` the IC50 [15] was 0.0005 µM.

Work on `O=C1/C(=C/c2ccccc2O)CC/C1=C\c1ccccc1O` yielded a DTT second-order rate constant [7] of 29 M⁻¹ s⁻¹ and an Activity [8] of 87 M⁻¹ s⁻¹.

In the case of `COC[C@H]1OC(=O)c2coc3c2[C@@]1(C)C1=C(C3=O)[C@@H]2CCC(=O)[C@@]2(C)C[C@H]1OC(C)=O` [WORTMANNIN], the IC50 [15] is reported as 0.0008 µM.

Reference: ChEMBL document CHEMBL4024702, “Covalent Modifiers: A Chemical Perspective on the Reactivity of α,β-Unsaturated Carbonyls with Thiols via Hetero-Michael Addition Reactions” (J Med Chem, 2017)
